Tests used:
[1] = target: Dihydroorotate dehydrogenase (quinone), mitochondrial (Homo sapiens, UniProt Q02127); test: Inhibition of human DHODH using dihydroorotate as substrate and CoQ6 as co-substrate by DCIP dye based spectrophotometry analysis
[2] = tested on: MOLM-13; test: Antiproliferative activity against human MOLM-13 assessed as reduction in cell viability incubated for 72 hrs by Cell titer-Glo assay; type: functional, cell-based; settings: MOLM-13, 72 h

Dihydroorotate dehydrogenase (quinone), mitochondrial, sequence (Q02127 whole entry): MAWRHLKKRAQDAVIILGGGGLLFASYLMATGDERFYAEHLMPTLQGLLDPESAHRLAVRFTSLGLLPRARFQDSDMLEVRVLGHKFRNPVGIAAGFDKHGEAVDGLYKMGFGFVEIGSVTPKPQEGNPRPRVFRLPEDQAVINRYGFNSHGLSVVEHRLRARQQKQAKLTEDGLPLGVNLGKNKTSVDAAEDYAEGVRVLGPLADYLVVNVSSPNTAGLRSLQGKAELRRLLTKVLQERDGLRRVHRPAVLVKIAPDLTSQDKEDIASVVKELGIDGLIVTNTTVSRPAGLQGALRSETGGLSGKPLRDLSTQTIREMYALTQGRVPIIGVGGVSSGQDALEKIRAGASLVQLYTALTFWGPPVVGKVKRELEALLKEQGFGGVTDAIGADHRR

Row | IC50 [1] [nM] | IC50 [2] [nM] | SMILES
1 | 0.38 | 0.46 | CCn1c(CO)nn(-c2nc(O[C@@H](C)C(F)(F)F)c3c(Nc4c(F)cccc4Cl)nncc3c2F)c1=O
2 | 0.3 | 0.3 | CCn1c(CO)nn(-c2cc(O[C@@H](C)C(F)(F)F)c3c(Oc4c(F)ccc(OC)c4Cl)nccc3c2)c1=O
3 | 0.2 | 0.2 | CCn1c(CO)nn(-c2nc(O[C@@H](C)C(F)(F)F)c3c(Oc4c(F)cccc4Cl)nncc3c2F)c1=O
4 | 0.41 | 0.3 | CCn1c(CO)nn(-c2cc(O[C@@H](C)C(F)(F)F)c3c(Oc4c(F)ccc(OCCOC)c4Cl)nccc3c2)c1=O
5 | 0.59 | 0.4 | CCn1c(CO)nn(-c2nc(OC(C)C(F)(F)F)c3c(Oc4c(F)cccc4Cl)nccc3c2F)c1=O (configuration not stated)
6 | 0.4 | 0.3 | CCn1c(CO)nn(-c2cc(O[C@@H](C)C(F)(F)F)c3c(Oc4c(F)ccc(N(C)C)c4Cl)nccc3c2)c1=O
